Experimental data from PubChem BioAssay (NCI).
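96-well plates; 48 h exposure; 5 concentrations. Endpoints by linear interpolation between flanking doses. Not reached: highest tested concentration assigned. TGI: total growth inhibition.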

What was measured:
Test in all cases: NCI anticancer screen, dose series, 48 h
NCI/ADR-RES ovarian = test system: NCI/ADR-RES ovarian
OVCAR-8 ovarian = test system: OVCAR-8 ovarian
UACC-257 melanoma = test system: UACC-257 melanoma
SNB-75 CNS = test system: SNB-75 CNS
IGROV1 ovarian = test system: IGROV1 ovarian
HCT-15 colon = test system: HCT-15 colon
LOX IMVI melanoma = test system: LOX IMVI melanoma
SF-539 CNS = test system: SF-539 CNS
PC-3 prostate = test system: PC-3 prostate

Compound | TGI (NCI/ADR-RES ovarian) | TGI (OVCAR-8 ovarian) | TGI (UACC-257 melanoma) | TGI (SNB-75 CNS) | TGI (IGROV1 ovarian) | TGI (HCT-15 colon) | TGI (LOX IMVI melanoma) | TGI (SF-539 CNS) | TGI (PC-3 prostate)
COc1cc(-c2nc3nc(N4CCN(C)CC4)ccc3[nH]2)c(OC)c2[nH]c(COC(C)=O)nc12 | > 100 µM | > 100 µM | 61.4 µM | > 100 µM | > 100 µM | > 100 µM | 73.6 µM | 35.4 µM | –
C/C(N=Nc1nc2ccccc2o1)=C1/C=CC=CN1O | 89.1 µM | > 100 µM | > 100 µM | – | > 100 µM | > 100 µM | > 100 µM | 62 µM | > 100 µM
O=C1C[C@H](c2ccccc2)C2(C(=O)c3ccccc3C2=O)[C@H](c2ccccc2)C1 | > 100 µM | > 100 µM | – | > 100 µM | > 100 µM | > 100 µM | – | – | > 100 µM
O=C(O)/C=C/C(=O)O | > 100 µM | > 100 µM | > 100 µM | > 100 µM | > 100 µM | > 100 µM | > 100 µM | > 100 µM | > 100 µM
CC(=O)NC1=CC(=O)c2cc(C)cc(O)c2C1=O | 23.9 µM | 18.7 µM | 4.79 µM | 37 µM | 26.4 µM | 13.8 µM | 7.74 µM | 14.8 µM | 40.7 µM
COc1cc(C2S/C(=C/c3ccccc3)C(=O)N2c2cccc([N+](=O)[O-])c2)cc(OC)c1OC (centres undefined) | > 100 µM | > 100 µM | > 100 µM | – | – | > 100 µM | > 100 µM | – | > 100 µM
C#CCOC(=O)C(N)CCCN=C(N)N (centres undefined) | > 100 µM | > 100 µM | > 100 µM | > 100 µM | > 100 µM | > 100 µM | > 100 µM | > 100 µM | > 100 µM
CC(C)C(C/C=C1\CC(CO)(COC(=O)CC(C(C)C)C(C)C)OC1=O)C(C)C (centres undefined) | 31.8 µM | 33 µM | 29.5 µM | 22.9 µM | 28.1 µM | 34.9 µM | 27.3 µM | 33 µM | 24.6 µM
CC(C)(C)OC(=O)NCC(=O)N1CCCN(C(=O)CNC(=O)OC(C)(C)C)CC1 | > 100 µM | > 100 µM | > 100 µM | > 100 µM | > 100 µM | > 100 µM | > 100 µM | – | > 100 µM
Nc1nc2cc(CNc3ccc(C(=O)NC(CCC(=O)O)C(=O)O)cc3)ccc2nc1-c1ccccc1 (centres undefined) | > 10 µM | > 10 µM | > 10 µM | > 10 µM | > 10 µM | > 10 µM | > 10 µM | > 10 µM | > 10 µM
COc1ccc(/C=N/n2c(Cc3ccc(Cl)cc3)n[nH]c2=O)c(OC)c1 | 45.2 µM | 95.5 µM | > 100 µM | 37.5 µM | > 100 µM | > 100 µM | > 100 µM | > 100 µM | > 100 µM
COc1ccc(C2c3cc4c(cc3OC(N3CCCCC3)C2C)OCO4)cc1 (centres undefined) | > 100 µM | > 100 µM | > 100 µM | > 100 µM | > 100 µM | > 100 µM | > 100 µM | > 100 µM | > 100 µM
Cc1cc([N+](=O)[O-])ccc1N=NC(=O)NNc1ccc([N+](=O)[O-])cc1C | – | 30 µM | 39.4 µM | 34.7 µM | 33.8 µM | 50.2 µM | 29.8 µM | – | 26.6 µM
CN(C)CCOC1(CC2CCCCC2)CCC(C(C)(C)C)CC1 (centres undefined) | 23.8 µM | 19.3 µM | 11.8 µM | 19.1 µM | 22.2 µM | 13.4 µM | 6.79 µM | 10.6 µM | 13.2 µM
CC(C)(C)c1cc(C2COC(=O)COCC(=O)OCCOCCOCCO2)cc(C(C)(C)C)c1O (centres undefined) | > 100 µM | > 100 µM | > 100 µM | 37 µM | > 100 µM | > 100 µM | > 80.2 µM | > 79.7 µM | > 100 µM
CCOC(=O)C(NCc1cccc(C(F)(F)F)c1)(NC(=O)c1ccccc1)C(F)(F)F (centres undefined) | 84.5 µM | > 100 µM | 68.7 µM | 93.3 µM | 66.9 µM | > 100 µM | 48.3 µM | > 100 µM | > 100 µM
Cc1cccc2c1C/C(=C\c1cccc(C)c1C(=O)O)C2=O | > 100 µM | > 100 µM | > 100 µM | > 100 µM | > 100 µM | > 100 µM | > 100 µM | > 100 µM | > 100 µM
CC(C)(NC1=NCCO1)c1ccccc1 | > 100 µM | > 100 µM | > 100 µM | > 100 µM | > 100 µM | > 100 µM | > 100 µM | > 100 µM | > 100 µM
O=c1[nH]c2ccccc2c2oc(-c3ccccc3)nc12 | > 100 µM | 59.1 µM | > 100 µM | 45.8 µM | > 100 µM | > 100 µM | 50.6 µM | > 100 µM | > 100 µM
O=C(/C=C/c1ccccc1O)/C=C/c1ccccc1O | 4.88 µM | 5.08 µM | 21.8 µM | 19.5 µM | 3.31 µM | 5.1 µM | – | 3.57 µM | 3.38 µM
CN(C)CCn1c(=O)c2ccc3c4c(nn3CCN(C)C)c3ccccc3n(c1=O)c24 | 2.58 µM | 0.288 µM | 3.24 µM | 0.145 µM | 1.92 µM | 1.39 µM | 1.38 µM | 2.2 µM | 3.21 µM
CCOc1cc(C2SCC(=O)N2c2nc3cc4sc(N5C(=O)CSC5c5ccc(O)c(OCC)c5)nc4cc3s2)ccc1O (centres undefined) | > 100 µM | > 100 µM | > 58.5 µM | > 100 µM | > 100 µM | > 100 µM | > 100 µM | > 100 µM | > 100 µM
CC(=O)OCC1OC(c2nnc(C)o2)=CC(OC(C)=O)C1OC(C)=O (centres undefined) | > 100 µM | > 100 µM | > 100 µM | > 100 µM | > 100 µM | – | > 100 µM | > 100 µM | > 100 µM
